Experimental data published in ChEMBL document CHEMBL5393450, “Compounds inhibiting tdg activity” (2022).

Target: G/T mismatch-specific thymine DNA glycosylase (Homo sapiens) (UniProt Q13569)
Assay: Inhibition of TDG in human HEK293T at 10 uM by Renilla luciferase based reporter assay relative to control
Assay type: cell-based

Sequence of G/T mismatch-specific thymine DNA glycosylase (Homo sapiens) (Q13569 whole entry): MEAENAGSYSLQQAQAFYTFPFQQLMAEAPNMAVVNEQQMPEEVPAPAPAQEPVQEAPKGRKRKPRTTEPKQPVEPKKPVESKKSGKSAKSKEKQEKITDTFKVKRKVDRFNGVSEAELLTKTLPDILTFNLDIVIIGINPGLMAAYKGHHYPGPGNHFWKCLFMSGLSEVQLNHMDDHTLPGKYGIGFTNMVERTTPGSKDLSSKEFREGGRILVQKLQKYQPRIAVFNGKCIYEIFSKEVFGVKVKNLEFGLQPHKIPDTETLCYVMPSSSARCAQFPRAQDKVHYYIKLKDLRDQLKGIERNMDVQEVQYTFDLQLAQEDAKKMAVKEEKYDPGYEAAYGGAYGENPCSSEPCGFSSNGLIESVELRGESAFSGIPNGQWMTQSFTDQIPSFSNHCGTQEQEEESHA

inhibition: < 25%
Compound: Cc1ccc(C2CCN(CCC(=O)c3ccc4c(c3)OCCO4)C2)cc1 (stereo unspecified)
